Data published in patent US20240132431A1, “METHOD FOR ALKYLATING ACIDIC FUNCTIONAL GROUP” (Chugai Seiyaku Kabushiki Kaisha, priority 2021, published 2024).

Biological target: T1, Bcl-2 protein (Recombinant Human Bcl-2 Protein) (Homo sapiens, UniProt P10415)
T1 construct: purchased Novus NBP2-34889
Assay: Binding evaluation of mixture library compounds to Bcl-2 using AS-MS (affinity selection mass spectrometry)
Details: for ASMS ratio (%) n = 1 / ASMS ratio (%) n = 2: ASMS Ratio(%)=(A−C)/B×100; for ASMS ratio (%) n = 1: replicate n = 1; for ASMS ratio (%) n = 2: replicate n = 2
How it was run: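 Readout is ASMS Ratio (%), (A−C)/B×100, from reversed-phase LC/MS of SEC-passed extracts, with protein-free unfiltered standard (B) and protein-free SEC blank (C). Recombinant human Bcl-2 at 20 μM final met ~1200 pooled compounds at […] each for 1 h, 23° C., dark, in Tris-HCl pH 7.4 buffer.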

[1] = AS-MS, mixture of 1200 compounds, Bcl-2
[2] = AS-MS on the mixture of 1200 library compounds

T1 sequence (P10415 whole entry): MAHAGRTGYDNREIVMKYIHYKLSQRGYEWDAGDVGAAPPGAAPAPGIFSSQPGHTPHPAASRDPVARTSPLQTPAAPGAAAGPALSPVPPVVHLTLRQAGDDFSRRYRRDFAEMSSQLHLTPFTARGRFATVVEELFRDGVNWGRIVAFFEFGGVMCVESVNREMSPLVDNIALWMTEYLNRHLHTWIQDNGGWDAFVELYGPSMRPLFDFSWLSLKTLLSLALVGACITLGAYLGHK

| ASMS ratio (%) n = 1 [2] [%] | ASMS ratio (%) n = 2 [2] [%] | Compound | ASMS ratio (%) n = 1 [1] [%] | ASMS ratio (%) n = 2 [1] [%] | other results |
| --- | --- | --- | --- | --- | --- |
| −0.4 | 2.1 | CCOc1cccc(-c2ccc(C(=O)N3CCN(c4ccc(C(=O)N(CC)CC)nn4)CC3)cc2F)c1 [B4J005-01, 6-[4-[4-(3-Ethoxyphenyl)-3-fluorobenzoyl]piperazin-1-yl]-N,N-diethylpyridazine-3-carboxamide] |  |  |  |
| 1.4 | 3.4 | CCOc1cncc(-c2ccc(CN3CCN(c4ccc(C(=O)Nc5ccc(OC)cc5)nn4)CC3)c(OC)c2)c1 [B1O080-01, 6-[4-[[4-(5-Ethoxypyridin-3-yl)-2-methoxyphenyl]methyl]piperazin-1-yl]-N-(4-methoxyphenyl)pyridazine-3-carboxamide] |  |  |  |

More lines, now with the values behind:

| Compound | ASMS ratio (%) n = 1 [2] [%] | ASMS ratio (%) n = 2 [2] [%] | ASMS ratio (%) n = 1 [1] [%] | ASMS ratio (%) n = 2 [1] [%] | other results |
| --- | --- | --- | --- | --- | --- |
| 4-[4-[3-[2-(3-Ethoxyphenyl)ethynyl]-5-(trifluoromethyl)benzoyl]piperazin-1-yl]-N-propylbenzamide [B1M014-01] |  |  | 4.1 | 0.4 |  |
| CCOc1cccc(-c2ccc(C(=O)N3CCN(c4ccc(C(=O)Nc5ccc(OC)cc5)cc4)CC3)c3ccccc23)c1 [B1O035-01, 4-[4-[4-(3-Ethoxyphenyl)naphthalene-1-carbonyl]piperazin-1-yl]-N-(4-methoxyphenyl)benzamide] | 4.3 | −3.7 |  |  |  |
| 6-[4-[3-(3-Ethoxyphenyl)-5-(trifluoromethyl)benzoyl]piperazin-1-yl]-N-propylpyridazine-3-carboxamide [B1M089-01] | 3.9 | 0.2 |  |  |  |
| CCOc1cncc(-c2cc(C(=O)N3CCN(c4ccc(C(=O)NCC56CC7CC(CC(C7)C5)C6)cc4)CC3)cc(C(C)(C)C)c2)c1 [B1A038-01, N-(1-Adamantylmethyl)-4-[4-[3-tert-butyl-5-(5-ethoxypyridin-3-yl)benzoyl]piperazin-1-yl]benzamide] |  |  | 6.5 | −6.4 |  |
| 6-[4-[4-(5-Ethoxypyridin-3-yl)-3-methylbenzoyl]piperazin-1-yl]-N-propylpyridazine-3-carboxamide [B1M037-01] |  |  | −1.5 | 2.3 |  |
| CCOc1cccc(-c2ccccc2CCC(=O)N2CCN(c3ccc(C(=O)NS(=O)(=O)CCC(F)(F)F)cc3)CC2)c1 [B2N033-01, 4-[4-[3-[2-(3-Ethoxyphenyl)phenyl]propanoyl]piperazin-1-yl]-N-(3,3,3-trifluoropropylsulfonyl)benzamide] |  |  |  |  | ASMS ratio (%) (n = 1): 0.0%; ASMS ratio (%) (n = 2): 0.0% |
| CCOc1cccc(C#Cc2cc(C(=O)N3CCN(c4ccc(C(=O)NS(C)(=O)=O)nn4)CC3)cc(C(F)(F)F)c2)c1 [B2I019-01, 6-[4-[3-[2-(3-Ethoxyphenyl)ethynyl]-5-(trifluoromethyl)benzoyl]piperazin-1-yl]-N-methylsulfonylpyridazine-3-carboxamide] |  |  |  |  | ASMS ratio (%) n = 1 (AS-MS, mixture library, Bcl-2): 0.0% |
| CCOc1cccc(-c2csc(CN3CCN(c4ccc(C(=O)NCC56CC7CC(CC(C7)C5)C6)nn4)CC3)c2)c1 [B1A093-01, N-(1-Adamantylmethyl)-6-[4-[[4-(3-ethoxyphenyl)thiophen-2-yl]methyl]piperazin-1-yl]pyridazine-3-carboxamide] |  |  | −5.3 | 0.0 |  |
| CCOc1cccc(-c2ccccc2CCC(=O)N2CCN(c3ccc(C(=O)NS(=O)(=O)c4ccc(NCCSc5ccccc5)c(C(F)(F)F)c4)cc3)CC2)c1 [B2R033-01, 4-[4-[3-[2-(3-Ethoxyphenyl)phenyl]propanoyl]piperazin-1-yl]-N-[4-(2-phenylsulfanylethylamino)-3-(trifluoromethyl)phenyl]sulfonylbenzamide] |  |  |  |  | ASMS ratio (%) (n = 1): 3.6%; ASMS ratio (%) (n = 2): −6.6% |
| 6-[4-[[3-(5-Ethoxypyridin-3-yl)-5-(trifluoromethyl)phenyl]methyl]piperazin-1-yl]-N-propylpyridazine-3-carboxamide [B1M029-01] |  |  | 3.0 | −0.6 |  |
